From article PMC7503370, “Cellular Signaling and Anti-Apoptotic Effects of Prolactin-Releasing Peptide and Its Analog on SH-SY5Y Cells” (International Journal of Molecular Sciences, 2020)
Numbered stars: 1 amine (or outer) side, 2 acyl side, 3 side chain; on linkers, the order of the positions; unused ones are H or OH. Side chains are listed from the residue outwards. Peptide text beside a SMILES is read from it. * marks the point of attachment. γGlu = O=C(O)[C@H](CCC(=O)[*:2])N[*:1]; Palmitoyl = CCCCCCCCCCCCCCCC(=O)*

Legend:
Assay type in all cases: cell-based, human
[1] = system: p-m-Tor, p-GSK-3β, p-ERK, p-CREB in SH-SY5Y cells; test: Western blotting with selective inhibitors of signaling pathways; conditions: insulin 1 × 10^−7 M, 37 °C, 8 min; for p-CREB after incubation with peptide, no inhibitor / p-ERK after incubation with peptide, no inhibitor / p-m-Tor (Ser2448) after application of peptide, no inhibitor: PrRP31 and palm^11-PrRP31 1 × 10^−5 M
Description: Immunoblots with PrRP31 and palm^11-PrRP31: (a) and insulin: (b) and their quantifications: (c). SH-SY5Y cells were incubated firstly with selective inhibitors for 2 min and then either with PrRP31 and its palmitoylated analog at a final concentration 1 × 10^−5 M, or with insulin in the final concentration 1 × 10^−7 M at 37 °C for 8 min, or alone in serum-free medium. Activated protein was normalized to loading control, GAPDH. Data are presented as the means ± SEM as a percentage of control cells treated with medium alone. Analysis is made between groups as shown in the graph by a Student’s t-test, * p < 0.5, ** p < 0.01, *** p < 0.001(each sample in triplicates).
(§1) Eight minutes of incubation was performed in a series of experiments with different exposure times (5, 10, 15, 30, and 60 min) to PrRP31 and its palmitoylated analog. Activation of analogs was strongest after 10 min. Then, the cells were treated with inhibitors of signaling pathways for 2 min, and analogs were added for 8 min. The time of exposure was set to 8 min to ensure that the incubation time for PrRP31 and its palmitoylated analog was the same. The controls and compounds were tested in triplicate in three independent experiments. The PI3K/Akt pathway is one of the main signaling pathways of insulin; therefore, insulin was used as a positive control. Scrambled peptide was used as a negative control. Activation is expressed as the ratio of the activated protein to the total amount of the protein. GAPDH was used as a loading control.
For further research, inhibitors of signaling pathways were used. The growth medium was exchanged for serum-free DMEM 16 h before the experiment. On the day of the experiment, cells were incubated for 2 min with rapamycin, SB216736 or U0126 at a final concentration of 1 × 10^−6 M; then, PrRP31, palm^11-PrRP31 or scrambled peptide at a final concentration of 1 × 10^−5 M or insulin at a concentration of 1 × 10^−7 M was added for 8 min. The plates were stored at 37 °C. The controls and compounds were tested in triplicate.

[2] = system: ERK-CREB signaling pathway in SH-SY5Y cells; test: Western blotting of ERK-CREB signaling pathway after 8 min incubation; conditions: 1 × 10^−5 M, 37 °C, vs control cells (medium alone), normalized to GAPDH, n = 3, triplicates
Description: (§2) Figure 2 PrRP31 and palm^11-PrRP31 increased phosphorylation of extracellular signal-regulated kinase/cAMP response element-binding protein (ERK-CREB) signaling pathway in SH-SY5Y cells. Immunoblots: (a) and their quantifications: (b). SH-SY5Y cells were incubated either with PrRP31 and its palmitoylated analog and scrambled at a final concentration 1 × 10^−5 M, or with insulin at the final concentration 1 × 10^−7 M at 37 °C for 8 min, or medium alone. Activation was expressed as the ratio of the activated protein to the total amount of the protein, both normalized to loading control, GAPDH. Data are presented as the means ± SEM as a percentage of control cells treated with medium alone analyzed by one-way ANOVA followed by the Dunnett post hoc test, * p < 0.5, ** p < 0.01, **** p < 0.0001 (n = 3, each sample in triplicates).
(§3) For the investigation of the molecular mechanism of PrRP31 and its analog in the cells, signaling pathways were studied by Western blotting (WB). The cells were cultured in 6-well plates at a density of 800,000 cells per well. Growth medium was exchanged for serum-free DMEM 16 h before an experiment, and then, the cells were incubated with PrRP31, palm^11-PrRP31, or scrambled peptide at a final concentration of 1 × 10^−5 M or insulin at a concentration of 1 × 10^−7 M at 37 °C for 8 min. The cells were rapidly cooled on ice and lysed in 400 µl of Laemmli sample buffer (62.5 mM Tris-HCl with pH 6.8, 2% SDS, 10% glycerol, 0.01% bromophenol blue, 5% mercaptoethanol, 50 mM NaF, and 1 mM Na3VO4) and stored at −20 °C. Afterward, the cell lysates were analyzed by WB. SDS-electrophoresis and WB were carried out using a Criterion system with a 26-well 4−15% Criterion^TM TGX^TM Precast Midi Protein Gel (Bio-Rad, Hercules, CA, USA) at a constant voltage of 200 V or 100 V, respectively.
(§4) Subsequently, the membranes were incubated overnight with primary antibody (Ab) at 4 °C, according to the manufacturer´s instructions (Table 2). The next day, the membranes were incubated with an HRP-linked secondary antibody for 1 h at room temperature. Chemiluminescence was visualized with a ChemiDoc^TM System (Bio-Rad). Band intensities were normalized using glyceraldehyde 3-phosphate dehydrogenase (GAPDH) as an internal loading control.
Eight minutes of incubation was performed in a series of experiments with different exposure times (5, 10, 15, 30, and 60 min) to PrRP31 and its palmitoylated analog. Activation of analogs was strongest after 10 min. Then, the cells were treated with inhibitors of signaling pathways for 2 min, and analogs were added for 8 min. […] Activation is expressed as the ratio of the activated protein to the total amount of the protein. […]

[3] = system: PI3K/Akt signaling pathway in SH-SY5Y cells; test: Western blotting of PI3K/Akt signaling pathway after 8 min incubation; conditions: 1 × 10^-5 M, 37 °C, vs control cells (medium alone), normalized to GAPDH, n = 3, triplicates
Description: as §2, with “1 Prolactin-releasing peptide 31 (PrRP31)” for “2 PrRP31”, “phosphoinositide-3 kinase (PI3K/Akt)” for “phosphorylation of extracellular signal-regulated kinase/cAMP response element-binding protein (ERK-CREB)”, “10^-5” for “10^−5”, “alone (control).” for “alone.”, “glyceraldehyde 3-phosphate dehydrogenase (GAPDH).” for “GAPDH.”, “cells” for “cells treated with medium alone”
as §3, §4, §1

[4] = normalized to GAPDH, triplicates

Row | SMILES | p-CREB after incubation with peptide, no inhibitor [1] | p-ERK after incubation with peptide, no inhibitor [1] | p-m-Tor (Ser2448) after application of peptide, no inhibitor [1, 4] | increase of p-CREB (Ser133)/CREB [2] | increase of p-ERK (Thr 202/Tyr204)/ERK [2] | increase of the level of p-Akt (Ser473)/Akt [3] | increase of the level of p-GSK3β (inhibitory Ser9)/GSK3β [3] | increase of the level of p-m-Tor (Ser2448)/m-Tor [3] | p-GSK-3β (Ser9) after incubation with peptide, no inhibitor ([1]; palm^11-PrRP31 1 × 10^−5 M, normalized to GAPDH, triplicates) | increase of the level of p-Akt (Thr308)/Akt [3] | increase of the level of p-PDK1 (Ser241)/PDK1 [3]
1 | CC[C@H](C)[C@H](NC(=O)CNC(=O)[C@H](CCCNC(=N)N)NC(=O)[C@H](CO)NC(=O)[C@H](C)NC(=O)[C@H](Cc1ccc(O)cc1)NC(=O)[C@H](Cc1c[nH]c2ccccc12)NC(=O)[C@H](C)NC(=O)[C@@H]1CCCN1C(=O)[C@H](CC(N)=O)NC(=O)[C@@H](NC(=O)[C@H](CC(=O)O)NC(=O)[C@@H]1CCCN1C(=O)[C@@H](NC(=O)[C@H](CCCNC(=N)N)NC(=O)[C@@H](NC(=O)[C@H](CCC(=O)O)NC(=O)[C@H](CCSC)NC(=O)[C@H](CO)NC(=O)[C@H](Cc1c[nH]cn1)NC(=O)[C@H](CCCNC(=N)N)NC(=O)[C@H](Cc1c[nH]cn1)NC(=O)[C@@H](NC(=O)[C@H](CCCNC(=N)N)NC(=O)[C@@H](N)CO)[C@@H](C)O)[C@@H](C)CC)[C@@H](C)O)[C@@H](C)CC)C(=O)N[C@@H](CCCNC(=N)N)C(=O)N1CCC[C@H]1C(=O)N[C@H](C(=O)NCC(=O)N[C@@H](CCCNC(=N)N)C(=O)N[C@@H](Cc1ccccc1)C(N)=O)C(C)C [PrRP31] | increased | increased | significantly increased | 68% | 36% | 53% | 41% | 22% |  |  | 
2 | CCCCCCCCCCCCCCCC(=O)N[C@@H](CCC(=O)NCCCC[C@H](NC(=O)[C@@H](NC(=O)[C@H](CCC(=O)O)NC(=O)[C@H](CCSC)NC(=O)[C@H](CO)NC(=O)[C@H](Cc1c[nH]cn1)NC(=O)[C@H](CCCNC(=N)N)NC(=O)[C@H](Cc1c[nH]cn1)NC(=O)[C@@H](NC(=O)[C@H](CCCNC(=N)N)NC(=O)[C@@H](N)CO)[C@@H](C)O)[C@@H](C)CC)C(=O)N[C@H](C(=O)N1CCC[C@H]1C(=O)N[C@@H](CC(=O)O)C(=O)N[C@H](C(=O)N[C@@H](CC(N)=O)C(=O)N1CCC[C@H]1C(=O)N[C@@H](C)C(=O)N[C@@H](Cc1c[nH]c2ccccc12)C(=O)N[C@@H](Cc1ccc(O)cc1)C(=O)N[C@@H](C)C(=O)N[C@@H](CO)C(=O)N[C@@H](CCCNC(=N)N)C(=O)NCC(=O)N[C@H](C(=O)N[C@@H](CCCNC(=N)N)C(=O)N1CCC[C@H]1C(=O)N[C@H](C(=O)NCC(=O)N[C@@H](CCCNC(=N)N)C(=O)N[C@@H](Cc1ccccc1)C(N)=O)C(C)C)[C@@H](C)CC)[C@@H](C)CC)[C@@H](C)O)C(=O)O [palm^11-PrRP31] (H-SRTHRHSMEIK([γGlu-Palmitoyl])TPDINPAWYASRGIRPVGRF-NH2; N-terminus assumed) | increased | increased | significantly increased | 238% | 74% | 48% | 85% | 22% | slight increase | 36% | 20%
